Experiments:
[1] = design: method as in PMID 15196586; conditions: cited from earlier work
Caco-2 cell model = test system: Caco-2 cell model; design: method as in PMID 28000173; conditions: Caco-2, 10 μM; cited from earlier work
human OCT1 = molecular target: T1, human OCT1 (Homo sapiens, UniProt O15245); test: Uptake study, HEK293 cells overexpressing OCT1; assay type: in vitro ADME
T1 construct: host or cells: HEK293 (HEK293-OCT1); control HEK293-MOCK
T1 sequence (O15245 1-554): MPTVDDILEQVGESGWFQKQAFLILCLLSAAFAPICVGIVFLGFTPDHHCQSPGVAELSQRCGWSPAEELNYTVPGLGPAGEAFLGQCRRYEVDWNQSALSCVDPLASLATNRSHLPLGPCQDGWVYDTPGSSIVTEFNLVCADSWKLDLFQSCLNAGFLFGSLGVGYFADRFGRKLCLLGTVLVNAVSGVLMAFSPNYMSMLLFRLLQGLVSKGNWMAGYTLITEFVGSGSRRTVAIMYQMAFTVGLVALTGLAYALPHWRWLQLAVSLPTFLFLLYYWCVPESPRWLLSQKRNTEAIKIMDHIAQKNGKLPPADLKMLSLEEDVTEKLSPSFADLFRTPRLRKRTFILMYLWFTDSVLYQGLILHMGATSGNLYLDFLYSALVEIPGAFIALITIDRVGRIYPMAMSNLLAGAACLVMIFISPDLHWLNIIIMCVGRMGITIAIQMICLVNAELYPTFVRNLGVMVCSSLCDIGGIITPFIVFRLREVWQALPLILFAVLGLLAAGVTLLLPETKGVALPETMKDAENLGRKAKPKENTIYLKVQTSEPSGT
Protocol: All cells (HEK293-MOCK, HEK293-OCT1, HEK293-OCT2, MDCK-MOCK, MDCK-OCTN1, and MDCK-OCTN2) were cultured in DMEM medium supplemented with 10% FBS and PS (100 U/mL), at 37 °C in a humidified 5% CO2 incubator. Cells were seeded on 24-well plates at a density of 1 × 10^4 cells/well. For the uptake assay, the DMEM media were removed, and the cells were washed with pre-warmed Hank’s buffer three times (1 mL/well). Subsequent addition of inhibitor-free/inhibitor-containing buffer was pre-incubated for 30 min at 37 °C prior to the initiation of the uptake experiment. After the pre-incubating buffer was removed, 200 μL of pre-warmed test drugs solution (Hank’s buffer containing 10 µM and 50 µM peramivir) or a mixture of test drugs and inhibitor was added into each well, and the plates were incubated at 37 °C for 5 min. At the end of incubation, cells were washed and lysed as described above. The cell lysate was collected and stored at −40 °C for LC-MS/MS analysis and protein measurement. The negative control (MOCK cells) and positive control were included simultaneously.

[2] = oral; cited from earlier work
NCI-H441 cell model = test: Bidirectional transport, NCI-H441 air-liquid culture model; assay type: in vitro ADME, human; conditions: NCI-H441, 2 μM
Protocol: NCI-H441 cells were cultured in RPMI-1640 medium (Gibco, Thermo, CA, USA) supplemented with 10% FBS and PS (100 U/mL) at 37 °C in a humidified 5% CO2 incubator, and the medium was changed every other day. […] Then, 850 μL of complete medium (containing 200 nM dexamethasone) was added to the basolateral chamber. […] Subsequently, an air-interfaced culture (AIC) was initiated by supplying 650 μL of culture medium to the basolateral chamber only. The culture medium was replaced every other day.
We removed the liquid from the apical and basolateral of the Transwell, rinsed the cells three times with a buffer containing HBSS, 10 mM Hepes, and 0.1% BSA (Buffer A), and then added Buffer A (100 µL for the apical side and 600 µL for the basolateral side) for pre-incubation for 30 min at 37 °C. For the transport studies in the apical to basolateral (A-B) direction, 100 μL of pre-warmed test solution (Buffer A containing 2 µM positive control drugs or peramivir) was added to the apical side, while 600 μL of pre-warmed assay buffer, a buffer containing HBSS, 10 mM Hepes, and 1% BSA (Buffer B), was added to the basolateral compartment.

## CCC(CC)[C@H](NC(C)=O)[C@@H]1[C@H](O)[C@@H](C(=O)O)C[C@H]1N=C(N)N [Peramivir]
[1]; high solubility/low metabolism
  BDDCS category: BDDCS-III
[1]; high solubility/low permeability
  BCS category: BCS-III
Caco-2 cell model
  Papp: 3.29 ± 0.739 × 10^−7 cm·s^−1
Human OCT1; HEK293-OCT1
  OCT1 substrate status: does not act as a substrate
Human OCT1; HEK293-OCT1, 50 μM
  transporter-mediated uptake ratio (UR): < 1
Human OCT1; HEK293-OCT1, 50 μM, inhibitor verapamil (200 μM)
  inhibition ratio (IR): exceeding 98.51%
[2]
  oral bioavailability: 3%
NCI-H441 cell model
  ER: 1.11
NCI-H441 cell model; Mean ± SD, n = 3
  Papp A-B: 1.15 ± 0.16 ×10−6 cm/s
  Papp B-A: 1.28 ± 0.36 ×10−6 cm/s

— publication PMC11858854, “In Vitro and In Vivo Assessment of Pharmacokinetic Profile of Peramivir in the Context of Inhalation Therapy” (Pharmaceuticals, 2025)
